# Assay results taken from US7759345B2, “Antitumoral derivatives of ET-743” (priority 2001, dated 2010).
# Key:
# Assay type in all cases: cell-based
# Details in all cases: SRB, 48 hours exposure
# K-562 = assay: Inhibition of cells growth by colorimetric assay (SRB), K-562
# Description: (§1) 2°.—Inhibition of Cells Growth by Colorimetric Assay.
# (§2) A colorimetric type of assay, using sulforhodamine B (SRB) reaction has been adapted for a quantitative measurement of cell growth and viability [following the technique described by Philip Skehan, et al. (1990), New colorimetric cytotoxicity assay for anticancer drug screening, J. Natl. Cancer Inst., 82:1107-1112]
# (§3) This form of the assay employs 96 well cell culture microplates of 9 mm diameter (Faircloth, 1988; Mosmann, 1983). Most of the cell lines are obtained from American Type Culture Collection (ATCC) derived from different human cancer types.
# (§4) Cells are maintained in RPMI 1640 10% FBS, supplemented with 0.1 g/l penicillin and 0.1 g/l streptomycin sulfate and then incubated at 37° C., 5% CO2 and 98% humidity. For the experiments, cells were harvested from subconfluent cultures using trypsin and resuspended in fresh medium before plating.
# (§5) Cells are seeded in 96 well microtiter plates, at 5×10^3 cells per well in aliquots of 195 μl medium, and they are allowed to attach to the plate surface by growing in drug free medium for 18 hours. Afterward, samples are added in aliquots of 5 μl in a ranging from 10 to 10^−8 μg/ml, dissolved in DMSO/EtOH/PBS (0.5:0.5:99). After 48 hours exposure, the antitumor effect are measured by the SRB methodology: cells are fixed by adding 50 μl of cold 50% (wt/vol) trichloroacetic acid (TCA) and incubating for 60 minutes at 4° C. Plates are washed with deionized water and dried. One hundred μl of SRB solution (0.4% wt/vol in 1% acetic acid) is added to each microtiter well and incubated for 10 minutes at room temperature. Unbound SRB is removed by washing with 1% acetic acid. Plates are air dried and bound stain is solubilized with Tris buffer. Optical densities are read on a automated spectrophotometric plate reader at a single wavelength of 490 nm.
# (§6) The values for mean+/−SD of data from triplicate wells are calculated. Some parameters for cellular responses can be calculated: GI=growth inhibition, TGI=total growth inhibition (cytostatic effect) and LC=cell killing (cytotoxic effect).
# (§7) Obtained results may predict the usefulness of a certain drug as a potential cancer treatment. For this technique, compounds which show GI50 values smaller than 10 μg/ml are selected to continue with further studies. GI50's data allow to predict that not only could a drug be cystostatic, but also it could have a potential in terms of tumor reduction.
# A-549 = assay: Inhibition of cells growth by colorimetric assay (SRB), A-549
# Outline: (§8)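 Sulforhodamine B protein-stain readout (490 nm) after 48 h drug exposure, with GI, TGI and LC parameters calculated from triplicate means. Cells seeded at 5×10^3 per well, allowed 18 h drug-free attachment; dose range 10 to 10^−8 μg/ml, vehicle DMSO/EtOH/PBS (0.5:0.5:99).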
# SK-MEL-28 = assay: Inhibition of cells growth by colorimetric assay (SRB), SK-MEL-28
# Description: as §1, §2, §3, §4, §5, §6, §7
# HT-29 = assay: Inhibition of cells growth by colorimetric assay (SRB), HT-29
# Outline: as §8
# LoVo = assay: Inhibition of cells growth by colorimetric assay (SRB), LoVo
# Description: as §1, §2, §3, §4, §5, §6, §7
# LoVo-Dox = assay: Inhibition of cells growth by colorimetric assay (SRB), LoVo-Dox
# Description: as §1, §2, §3, §4, §5, §6, §7
# DU-145 = assay: Inhibition of cells growth by colorimetric assay (SRB), DU-145
# Description: as §1, §2, §3, §4, §5, §6, §7
# LNCaP = assay: Inhibition of cells growth by colorimetric assay (SRB), LNCaP
# Description: as §1, §2, §3, §4, §5, §6, §7
# IGROV-1 = assay: Inhibition of cells growth by colorimetric assay (SRB), IGROV-1
# Description: as §1, §2, §3, §4, §5, §6, §7
# IGROV-ET = assay: Inhibition of cells growth by colorimetric assay (SRB), IGROV-ET
# Description: as §1, §2, §3, §4, §5, §6, §7
# SK-OV-3 = assay: Inhibition of cells growth by colorimetric assay (SRB), SK-OV-3
# Description: as §1, §2, §3, §4, §5, §6, §7
# PANC-1 = assay: Inhibition of cells growth by colorimetric assay (SRB), PANC-1
# Description: as §1, §2, §3, §4, §5, §6, §7
compound,measurement,setting,value
COc1cc2c(cc1O)CCN[C@]21CS[C@@H]2c3c(OC(C)=O)c(C)c4c(c3[C@H](COC1=O)N1C2[C@H]2c3c(cc(C)c(OC)c3OC(C)C)C[C@@H]([C@@H]1O)N2C)OCO4 (stereo partly drawn) [Compound 102],GI50,"K-562; Homo sapiens, K562, 48 h, K-562, read-out: K-562 GI50",10.2 nM
same,LC50 (50% cell killing),"K-562; Homo sapiens, K562, 48 h, read-out: K-562 LC50, K-562",126 nM
same,K-562 TGI,K-562; K-562,4.35E-08
same,A-549 TGI,A-549; A-549,4.24E-07
same,GI50,"A-549; Homo sapiens, A549, 48 h, A-549, read-out: A-549 GI50",152 nM
same,LC50 (concentration for 50% cell killing),"A-549; Homo sapiens, A549, 48 h, read-out: A-549 LC50, A-549",1190 nM
same,GI50,"SK-MEL-28; Homo sapiens, SK-MEL-28, 48 h, MEL-28, read-out: MEL-28 GI50",37.9 nM
same,CC50,"SK-MEL-28; Homo sapiens, SK-MEL-28, 48 h, read-out: MEL-28 LC50, MEL-28",128 nM
same,MEL-28 TGI,SK-MEL-28; MEL-28,6.89E-08
same,HT-29 TGI,HT-29; HT-29,2.19E-06
same,GI50,"HT-29; Homo sapiens, HT-29, 48 h, HT-29, read-out: HT-29 GI50",87 nM
same,LC50 (concentration for 50% cell killing),"HT-29; Homo sapiens, HT-29, 48 h, read-out: HT-29 LC50, HT-29",12400 nM
same,GI50,"LoVo; Homo sapiens, LoVo, 48 h, LOVO, read-out: LOVO GI50",69.8 nM
same,LC50 (concentration for 50% cell killing),"LoVo; Homo sapiens, LoVo, 48 h, read-out: LOVO LC50, LOVO",12400 nM
same,LOVO TGI,LoVo; LOVO,4.58E-07
same,GI50,"LoVo-Dox; Homo sapiens, 48 h, LOVO-DOX, read-out: LOVO-DOX GI50",417 nM
same,CC50,"LoVo-Dox; Homo sapiens, 48 h, read-out: LOVO-DOX LC50, LOVO-DOX",12400 nM
same,LOVO-DOX TGI,LoVo-Dox; LOVO-DOX,1.02E-06
same,DU-145 TGI,DU-145; DU-145,7.84E-08
same,GI50,"DU-145; Homo sapiens, DU-145, 48 h, DU-145, read-out: DU-145 GI50",39.8 nM
same,CC50,"DU-145; Homo sapiens, DU-145, 48 h, read-out: DU-145 LC50, DU-145",124 nM
same,GI50,"LNCaP; Homo sapiens, LNCaP, 48 h, read-out: LNCAP GI50, LNCAP",17.5 nM
same,CC50,"LNCaP; Homo sapiens, LNCaP, 48 h, read-out: LNCAP LC50, LNCAP",95.4 nM
same,LNCAP TGI,LNCaP; LNCAP,4.09E-08
same,GI50,"IGROV-1; Homo sapiens, IGROV-1, 48 h, IGROV, read-out: IGROV GI50",35.3 nM
same,CC50,"IGROV-1; Homo sapiens, IGROV-1, 48 h, read-out: IGROV LC50, IGROV",134 nM
same,IGROV TGI,IGROV-1; IGROV,7.63E-08
same,GI50,"IGROV-ET; Homo sapiens, 48 h, IGROV-ET, read-out: IGROV-ET GI50",101 nM
same,CC50,"IGROV-ET; Homo sapiens, 48 h, read-out: IGROV-ET LC50, IGROV-ET",7810 nM
same,IGROV-ET TGI,IGROV-ET; IGROV-ET,1.53E-06
same,GI50,"SK-OV-3; Homo sapiens, SK-OV-3, 48 h, SK-OV3, read-out: SK-OV3 GI50",41.3 nM
same,LC50,"SK-OV-3; Homo sapiens, SK-OV-3, 48 h, read-out: SK-OV3 LC50, SK-OV3",124 nM
same,SK-OV3 TGI,SK-OV-3; SK-OV3,1.10E-07
same,GI50,"PANC-1; Homo sapiens, PANC-1, 48 h, PANC-1, read-out: PANC-1 GI50",55.4 nM
same,LC50 (concentration for 50% net cell kill),"PANC-1; Homo sapiens, PANC-1, 48 h, read-out: PANC-1 LC50, PANC-1",12400 nM
same,PANC-1 TGI,PANC-1; PANC-1,1.39E-07
